According to PubChem BioAssay (NCI):
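Growth conditions: 96-well plates. Treatment: test compound, 48 hours, 5 concentrations. Analysis: linear interpolation between bracketing concentrations; unreached endpoints set to highest concentration. GI50: concentration for 50% inhibition of growth. The concentration for full growth arrest is given as TGI.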

Columns and labels:
Assay in all cases: NCI tumour cell line growth inhibition, 48 h
[1] = tested on: ACHN renal
[2] = tested on: COLO 205 colon
[3] = tested on: CCRF-CEM leukemia
[4] = tested on: KM12 colon
[5] = tested on: SK-OV-3 ovarian
[6] = tested on: TK-10 renal
[7] = tested on: SN12C renal
[8] = tested on: K-562 leukemia
[9] = tested on: SF-295 CNS
[10] = tested on: NCI-H226 lung

SMILES	TGI [1] [µM]	TGI [2] [µM]	TGI [3] [µM]	TGI [4] [µM]	TGI [5] [µM]	TGI [6] [µM]	TGI [7] [µM]	TGI [8] [µM]	TGI [9] [µM]	TGI [10] [µM]	GI50 [1] [µM]	GI50 [3] [µM]	GI50 [5] [µM]	GI50 [6] [µM]	GI50 [7] [µM]	GI50 [8] [µM]	GI50 [9] [µM]	GI50 [2] [µM]	GI50 [10] [µM]	GI50 [4] [µM]
CCCCCCCCCC/C=C/C=O	> 100	> 100	> 100	> 100	> 100	> 100	> 100	> 100	> 100	–	–	–	–	–	–	–	–	–	–	–
CN1CCN(c2ccc3[nH]c(C4=C(O)C(=O)[C@@H]5C(=C4O)N=C(CO)N5C)nc3n2)CC1	> 100	> 100	> 100	> 100	> 100	–	> 100	> 100	> 100	> 100	–	–	–	–	–	–	–	–	–	–
Cc1cc(C)c(NC(=O)/C=C/c2ccccc2)c(C)c1	> 100	–	> 100	> 100	> 100	> 100	–	> 100	> 100	> 100	–	–	–	–	–	–	–	–	–	–
C=CC(=O)NCNC(=O)C=C	> 100	> 100	> 100	> 100	> 100	> 100	> 100	> 100	> 100	> 100	–	–	–	–	–	–	–	–	–	–
O=C1/C(=C/c2ccc(Cl)cc2)N=C(c2ccccc2)N1/N=C/c1ccccc1O	21.2	> 100	7.73	33.3	22.4	12.6	> 100	31	29.7	42.1	–	–	–	–	–	–	–	–	–	–
CCP(=O)(CC)C(Cl)(Cl)C(O)C(Cl)(Cl)Cl (configuration not stated)	> 100	> 100	> 100	–	> 100	> 100	> 100	> 100	> 100	> 100	–	–	–	–	–	–	–	–	–	–
C#C[C@]1(O)[C@@H](CO)O[C@@H](n2ccc(N)nc2=O)[C@@H]1O	0.612	0.203	4.27	4.4	> 100	2.65	–	> 100	3.07	3.66	–	–	–	–	–	–	–	–	–	–
NCCCn1c2c(c3ccc([N+](=O)[O-])cc3c1=O)C(=O)c1cc(F)ccc1-2	0.142	–	0.779	–	0.349	2.7	0.805	0.331	0.142	–	0.0241	< 0.0144	0.0139	0.372	0.0439	< 0.0205	0.0157	–	–	–
COc1cc(/C=C/C(=O)c2ccc(F)cc2)ccc1OCCCCCOc1cc2c(cc1OC)C(=O)N1CCCC1C=N2 (configuration not stated)	0.368	0.043	0.0258	0.0501	6.06	0.981	2.37	–	< 0.0108	1.07	0.0197	< 0.01	0.212	0.123	0.0335	0.0306	< 0.01	< 0.0151	0.0493	0.0147
NC(Cc1ccccc1)c1nn[nH]n1 (configuration not stated)	> 100	> 100	> 100	> 100	> 100	> 100	> 100	> 100	> 100	> 100	–	–	–	–	–	–	–	–	–	–
CC(C)OC(=O)NNc1cccc(Cl)c1	> 100	> 100	> 100	> 100	> 100	> 100	> 100	> 100	> 100	> 100	–	–	–	–	–	–	–	–	–	–
